Assays:
Type in all cases: in vivo
Phakopsora pachyrhizi = test: Test A: Asian soybean rust control on soybean seedlings; details: sprayed to run-off on soybean seedlings, inoculated the following day, 100 = 100% disease control, 0 = no control
Description: General protocol for preparing test suspensions for Tests A-C: the test compounds were first dissolved in acetone in an amount equal to 3% of the final volume and then suspended at the desired concentration (in ppm) in acetone and purified water (50/50 mix by volume) containing 250 ppm of the surfactant PEG400 (polyhydric alcohol esters). The resulting test suspensions were then used in Tests A-C.
The test solution was sprayed to the point of run-off on soybean seedlings. The following day the seedlings were inoculated with a spore suspension of Phakopsora pachyrhizi (the causal agent of Asian soybean rust) and incubated in a saturated atmosphere at 22° C. for 24 h, and then moved to a growth chamber at 22° C. for 8 days, after which time visual disease ratings were made.
Results for Tests A-C are given in Table A. In the Table, a rating of 100 indicates 100% disease control and a rating of 0 indicates no disease control (relative to the controls). A dash (-) indicates the compound was not tested.

Zymoseptoria tritici = test: Test B: wheat leaf blotch control on wheat seedlings; details: sprayed to run-off on wheat seedlings, inoculated the following day, 100 = 100% disease control, 0 = no control
Description: (§1) General protocol for preparing test suspensions for Tests A-C: the test compounds were first dissolved in acetone in an amount equal to 3% of the final volume and then suspended at the desired concentration (in ppm) in acetone and purified water (50/50 mix by volume) containing 250 ppm of the surfactant PEG400 (polyhydric alcohol esters). The resulting test suspensions were then used in Tests A-C. The test solution was sprayed to the point of run-off on wheat seedlings. The following day the seedlings were inoculated with a spore suspension of Zymoseptoria tritici (the causal agent of wheat leaf blotch) and incubated in a saturated atmosphere at 24° C. for 48 h, and then moved to a growth chamber at 20° C. for 17 days, after which time disease ratings were made. Results for Tests A-C are given in Table A. In the Table, a rating of 100 indicates 100% disease control and a rating of 0 indicates no disease control (relative to the controls). A dash (-) indicates the compound was not tested.

[1] = tested on: Puccinia recondita f. sp. tritici; test: Test C: wheat leaf rust control on wheat seedlings; details: sprayed to run-off on wheat seedlings, inoculated the following day, 100 = 100% disease control, 0 = no control
Description: as §1, with “Puccinia recondita f. sp.” for “Zymoseptoria”, “rust)” for “blotch)”, “20°” for “24°”, “24” for “48”, “6” for “17”

[2] = 250 ppm (incl. values marked * = tested at 250 ppm)

SMILES: CCNC(=O)OCC(OC)c1ccc(-c2noc(C(F)(F)F)n2)cc1 (racemic) [Compound 5]
- Test A disease control rating (Phakopsora pachyrhizi; 260 ppm): 100%
- Test B disease control rating (Zymoseptoria tritici; 260 ppm): 81%
- Test C disease control rating ([1]; 260 ppm): 100%

SMILES: CCC(C)NC(=O)OCc1ccc(-c2noc(C(F)(F)F)n2)cc1 (racemic) [Compound 14]
- Test A disease control rating (Phakopsora pachyrhizi; 250 ppm): 100%
- Test B disease control rating (Zymoseptoria tritici; [2]): 84%
- Test C disease control rating ([1]; 250 ppm): 100%

SMILES: O=C(Nc1ccccc1)OCc1ccc(-c2noc(C(F)(F)F)n2)cc1 [Compound 1]
- Test A disease control rating (Phakopsora pachyrhizi; 270 ppm): 100%
- Test B disease control rating (Zymoseptoria tritici; 270 ppm): 79%
- Test C disease control rating ([1]; 270 ppm): 100%

SMILES: CCNC(=O)OCc1ccc(-c2noc(C(F)(F)F)n2)cc1 [Compound 2]
- Test A disease control rating (Phakopsora pachyrhizi; 260 ppm): 100%
- Test B disease control rating (Zymoseptoria tritici; 260 ppm): 99%
- Test C disease control rating ([1]; 260 ppm): 100%

SMILES: CC(C)NC(=O)OCc1ccc(-c2noc(C(F)(F)F)n2)cc1 [Compound 3]
- Test A disease control rating (Phakopsora pachyrhizi; 250 ppm): 100%
- Test B disease control rating (Zymoseptoria tritici; [2]): 73%
- Test C disease control rating ([1]; 250 ppm): 100%

SMILES: CCOC(=O)CNC(=O)OCc1ccc(-c2noc(C(F)(F)F)n2)cc1 [Compound 4]
- Test A disease control rating (Phakopsora pachyrhizi; 260 ppm): 100%
- Test B disease control rating (Zymoseptoria tritici; 260 ppm): 46%
- Test C disease control rating ([1]; 260 ppm): 100%

SMILES: CN(C)C(=O)OCc1ccc(-c2noc(C(F)(F)F)n2)cc1 [Compound 6]
- Test A disease control rating (Phakopsora pachyrhizi; 260 ppm): 100%
- Test B disease control rating (Zymoseptoria tritici; 260 ppm): 76%
- Test C disease control rating ([1]; 260 ppm): 100%

SMILES: O=C(NCCCl)OCc1ccc(-c2noc(C(F)(F)F)n2)cc1 [Compound 7]
- Test A disease control rating (Phakopsora pachyrhizi; 260 ppm): 100%
- Test B disease control rating (Zymoseptoria tritici; 260 ppm): 98%
- Test C disease control rating ([1]; 260 ppm): 100%

SMILES: O=C(OCc1ccc(-c2noc(C(F)(F)F)n2)cc1)n1ccnc1 [Compound 8, 2-[4-[5-(trifluoromethyl)-1,2,4-oxadiazol-3-yl]phenyl]methyl-1H-imidazole-1-carboxylate]
- Test A disease control rating (Phakopsora pachyrhizi; 255 ppm): 100%
- Test B disease control rating (Zymoseptoria tritici; 255 ppm): 13%
- Test C disease control rating ([1]; 255 ppm): 100%

SMILES: CNC(=O)OCc1ccc(-c2noc(C(F)(F)F)n2)cc1 [Compound 9]
- Test A disease control rating (Phakopsora pachyrhizi; 260 ppm): 100%
- Test B disease control rating (Zymoseptoria tritici; 260 ppm): 94%
- Test C disease control rating ([1]; 260 ppm): 100%

SMILES: CCCNC(=O)OCc1ccc(-c2noc(C(F)(F)F)n2)cc1 [Compound 10]
- Test A disease control rating (Phakopsora pachyrhizi; 250 ppm): 100%
- Test B disease control rating (Zymoseptoria tritici; [2]): 97%
- Test C disease control rating ([1]; 250 ppm): 100%

SMILES: COCCNC(=O)OCc1ccc(-c2noc(C(F)(F)F)n2)cc1 [Compound 11]
- Test A disease control rating (Phakopsora pachyrhizi; 250 ppm): 100%
- Test B disease control rating (Zymoseptoria tritici; [2]): 96%
- Test C disease control rating ([1]; 250 ppm): 100%

SMILES: C#CCNC(=O)OCc1ccc(-c2noc(C(F)(F)F)n2)cc1 [Compound 12]
- Test A disease control rating (Phakopsora pachyrhizi; 265 ppm): 100%
- Test B disease control rating (Zymoseptoria tritici; 265 ppm): 100%
- Test C disease control rating ([1]; 265 ppm): 100%

SMILES: CCOC(=O)c1ccc(CNC(=O)OCCCc2ccc(-c3noc(C(F)(F)F)n3)cc2)cc1 [Compound 69]
- Test A disease control rating (Phakopsora pachyrhizi; 50 ppm): 100%
- Test C disease control rating ([1]; 50 ppm): 0%

SMILES: CC(OC(=O)n1ccnc1)c1ccc(-c2noc(C(F)(F)F)n2)cc1 (stereo not drawn) [Compound 70]
- Test A disease control rating (Phakopsora pachyrhizi; 10 ppm): 99%
- Test C disease control rating ([1]; 10 ppm): 68%

SMILES: CNC(=O)OC(C)c1ccc(-c2noc(C(F)(F)F)n2)cc1 (stereo not drawn) [Compound 71]
- Test A disease control rating (Phakopsora pachyrhizi; 10 ppm): 100%
- Test C disease control rating ([1]; 10 ppm): 83%

SMILES: CCCNC(=O)OC(C)c1ccc(-c2noc(C(F)(F)F)n2)cc1 (stereo not drawn) [Compound 73]
- Test A disease control rating (Phakopsora pachyrhizi; 10 ppm): 100%
- Test C disease control rating ([1]; 10 ppm): 68%

SMILES: CCCNC(=O)OC(C)c1ccc(-c2noc(C(F)(F)F)n2)s1 (stereo not drawn) [Compound 74]
- Test A disease control rating (Phakopsora pachyrhizi; 10 ppm): 100%
- Test C disease control rating ([1]; 10 ppm): 98%

SMILES: NC(=O)OCc1ccc(-c2noc(C(F)(F)F)n2)o1 [Compound 80]
- Test A disease control rating (Phakopsora pachyrhizi; 10 ppm): 0%
- Test C disease control rating ([1]; 10 ppm): 0%

SMILES: C#CCNC(=O)OCc1ccc(-c2noc(C(F)(F)F)n2)o1 [Compound 81]
- Test A disease control rating (Phakopsora pachyrhizi; 10 ppm): 0%
- Test C disease control rating ([1]; 10 ppm): 45%

SMILES: O=C(OCc1ccc(-c2noc(C(F)(F)F)n2)o1)n1ccnc1 [Compound 82]
- pest or weed control at 50 ppm (Phakopsora pachyrhizi; Phakopsora pachyrhizi, 216 h, 50 ppm, read-out: Test A disease control rating): 89%
- pest or weed control at 50 ppm ([1]; Puccinia recondita, 168 h, 50 ppm, read-out: Test C disease control rating): 0%

SMILES: COc1ccc(C(OC(=O)n2ccnc2)c2ccc(-c3noc(C(F)(F)F)n3)cc2)cc1 (stereo not drawn) [Compound 83]
- Test A disease control rating (Phakopsora pachyrhizi; 50 ppm): 100%
- Test C disease control rating ([1]; 50 ppm): 100%

SMILES: CC(OC(N)=O)c1ccc(-c2noc(C(F)(F)F)n2)cc1 (stereo not drawn) [Compound 84]
- Test A disease control rating (Phakopsora pachyrhizi; 10 ppm): 100%
- Test C disease control rating ([1]; 10 ppm): 100%

SMILES: CC(C)(C)OC(=O)NN=Cc1ccc(-c2noc(C(F)(F)F)n2)cc1 [Compound 106]
- Test A disease control rating (Phakopsora pachyrhizi; 10 ppm): 97%
- Test C disease control rating ([1]; 10 ppm): 68%

SMILES: CCOC(=O)NN=Cc1ccc(-c2noc(C(F)(F)F)n2)cc1 [Compound 107]
- Test A disease control rating (Phakopsora pachyrhizi; 10 ppm): 100%
- Test C disease control rating ([1]; 10 ppm): 99%

SMILES: COC(=O)NN=C(C)c1ccc(-c2noc(C(F)(F)F)n2)cc1 [Compound 108]
- Test A disease control rating (Phakopsora pachyrhizi; 10 ppm): 92%
- Test C disease control rating ([1]; 10 ppm): 89%

SMILES: CN(N=Cc1ccc(-c2noc(C(F)(F)F)n2)cc1)C(=O)OC(C)(C)C [Compound 109]
- Test A disease control rating (Phakopsora pachyrhizi; 50 ppm): 100%
- Test C disease control rating ([1]; 50 ppm): 95%

SMILES: CCNC(=O)OC(c1ccccc1)c1ccc(-c2noc(C(F)(F)F)n2)cc1 (stereo not drawn) [Compound 110]
- Test A disease control rating (Phakopsora pachyrhizi; 250 ppm): 100%
- Test C disease control rating ([1]; 250 ppm): 100%

SMILES: O=C(OC(c1ccccc1)c1ccc(-c2noc(C(F)(F)F)n2)cc1)n1ccnc1 (stereo not drawn) [Compound 111]
- Test A disease control rating (Phakopsora pachyrhizi; 250 ppm): 100%
- Test C disease control rating ([1]; 250 ppm): 100%

SMILES: NC(=O)OC(c1ccccc1)c1ccc(-c2noc(C(F)(F)F)n2)cc1 (stereo not drawn) [Compound 117]
- Test A disease control rating (Phakopsora pachyrhizi; 250 ppm): 100%
- Test C disease control rating ([1]; 250 ppm): 100%

SMILES: C#CCNC(=O)OC(c1ccccc1)c1ccc(-c2noc(C(F)(F)F)n2)cc1 (stereo not drawn) [Compound 118]
- Test A disease control rating (Phakopsora pachyrhizi; 250 ppm): 100%
- Test C disease control rating ([1]; 250 ppm): 100%

SMILES: COC(=O)c1ccc(CNC(=O)OC(c2ccccc2)c2ccc(-c3noc(C(F)(F)F)n3)cc2)cc1 (stereo not drawn) [Compound 119]
- Test A disease control rating (Phakopsora pachyrhizi; 250 ppm): 100%
- Test C disease control rating ([1]; 250 ppm): 74%

SMILES: C#CCCNC(=O)OC(c1ccccc1)c1ccc(-c2noc(C(F)(F)F)n2)cc1 (stereo not drawn) [Compound 120]
- Test A disease control rating (Phakopsora pachyrhizi; 250 ppm): 100%
- Test C disease control rating ([1]; 250 ppm): 100%

SMILES: CN(C)C(=O)OC(c1ccccc1)c1ccc(-c2noc(C(F)(F)F)n2)cc1 (stereo not drawn) [Compound 121]
- Test A disease control rating (Phakopsora pachyrhizi; 250 ppm): 100%
- Test C disease control rating ([1]; 250 ppm): 99%

SMILES: COCCNC(=O)OC(c1ccccc1)c1ccc(-c2noc(C(F)(F)F)n2)cc1 (stereo not drawn) [Compound 122]
- Test A disease control rating (Phakopsora pachyrhizi; 10 ppm): 100%
- Test C disease control rating ([1]; 10 ppm): 89%

SMILES: CONC(=O)OCc1ccc(-c2noc(C(F)(F)F)n2)cc1 [Compound 136]
- Test A disease control rating (Phakopsora pachyrhizi; 10 ppm): 79%
- Test C disease control rating ([1]; 10 ppm): 0%

SMILES: Cc1ccccc1C(OC(=O)n1ccnc1)c1ccc(-c2noc(C(F)(F)F)n2)cc1 (stereo not drawn) [Compound 142]
- Test A disease control rating (Phakopsora pachyrhizi; 10 ppm): 98%
- Test C disease control rating ([1]; 10 ppm): 0%
